Laboratory results from patent publication US20220354957A1, “PEPTIDES TARGETING MACROPHAGES, AND CONJUGATES, COMPOSITIONS, AND USES THEREOF” (Twinpig Biolab, Inc., priority 2021, published 2022).

How the values were obtained:
PC3 cells = experiment: Invasion assay of prostate cancer cells with conditioned medium of macrophages; type: cell-based, human; settings: conditioned medium of M2 macrophages and M2-like TAMs pretreated with peptide
Experimental: To obtain conditioned media of tumor (TCM), PC3 cells were seeded at 2×10^5 cells/well in culture medium in 24-well plates (Corning Inc). After 24 hours, the medium was changed to serum-free RPMI1640 medium and the cells were incubated for 24 hours. For conditioned media of macrophages, THP-1 cells were seeded at 2×10^5 cells/well in culture medium in 24-well plates (Corning Inc) and incubated with 100 nM PMA for 24 h. Cells were polarized into M0, M1, and M2 macrophages or TAM macrophages by TCM and changed to serum-free RPMI1640 medium. After 24 hours, the medium was changed to serum-free RPMI1640 medium and the cells were incubated for 24 hours. Supernatants were harvested and clarified with syringe filters (0.2 μm, Milipore). […]
The invasiveness of prostate cancer cells treated with conditioned media of macrophages was tested according to the manufacturer's instructions for the invasion assay (Corning Inc.) with slight modifications. Briefly, invasiveness was assessed using 24-well plates fitted with polycarbonate 8-μm pore membrane inserts (Corning Inc.) pre-coated with Matrigel (200-300 μg/mL) for 2 hours at 37° C. […] Five randomly selected fields per membrane were counted under a light microscope (Olympus). The invasion index was calculated from the number of cells that migrated in response to conditioned medium compared with the control without conditioned medium.

[1] = test system: TGF-β1-induced A549 cells cocultured with IL-4 and IL-13 induced THP-1 macrophages; experiment: In vitro lung fibrosis model, coculture; type: cell-based, human; settings: 1.5 μM, cocultured with M2 polarization of THP-1
Experimental: THP-1 cells were purchased from the American Type Culture Collection (ATCC) and cultured according to their specific indications, using an RPMI 1640 medium supplemented with non-heat-treated 10% fetal bovine serum (FBS; WelGENE), 2 mM L-glutamine, 0.05 mM β-mercaptoethanol, 10 mM HEPES, 4500 mg/L glucose, 100 U/ml penicillin and 100 μg/ml streptomycin (Gibco). Human alveolar cell, A549 cells, obtained from the American Type Culture Collection (ATCC), were cultured in RPMI 1640 medium containing 2.05 mM L-glutamine, 2 g/liter sodium bicarbonate and 2 g/liter glucose (WelGENE) together with 10% FBS (WelGENE), 100 U/ml penicillin and 100 μg/m1 streptomycin (Gibco). Cells were cultured at 37° C. in a 5% CO2 humidified incubator to reach 80% of confluence.
THP-1 cells are differentiated into macrophages by 24 h incubation with 100 nM phorbol 12-myristate 13-acetate (PMA, Sigma) followed by 24 h incubation in RPMI medium (Invtrogen). […]
Total RNA was extracted using Easy-Blue reagent. Concentrations of RNA were determined and quantified by measuring absorbance at 260 and 280 nm with a spectrophotometer. […] PCR conditions were forty-five cycles at 95° C. for 5 min, followed by 95° C. for 10 sec, 60° C. for 10 sec and 72° C. for 10 sec. mRNA expression were quantified in triplicate. Data were measured with CFX Software (Bio-Rad). […]

[2] = test system: murine melanoma cells (B16F10 cell line); experiment: Mouse model of melanoma (subcutaneous B16F10); type: in vivo; settings: vs PBS group
From the text: BALB/c and C57BL/6 (B6) wild-type mice were purchased from DBL. For the subcutaneous tumor model of melanoma and prostate cancer, CT26 (3×10^5 cells/mouse), B16F10 (1×10^6 cells/mouse) and TRAMP-C2 cells (1×10^6 cells/mouse) were mixed with Matrigel matrix (Corning) and inoculated subcutaneously into the right flank of the mice, and 4T1 (1×10^5 cells/mouse) cells mixed with Matrigel matrix and inoculated into a 4th mammary fat pad of the mice. TAMpepK, and MpepK peptides (200 nmol/kg) were injected intraperitoneally every 3 days, beginning at day 7 after tumor inoculation, and tumor volume was measured by electronic caliper. All tumor tissues were harvested after the end of the study and tumor weight was measured by an electronic balance.

[3] = B16F10 in C57BL6J mice, 200 nmol/kg i.p. every 3 days

CC[C@H](C)[C@H](NC(=O)[C@H](CC(C)C)NC(=O)[C@H](C)NC(=O)[C@@H]1CCCN1C(=O)[C@H](CC(C)C)NC(=O)CNC(=O)[C@@H](NC(=O)[C@@H](NC(=O)[C@H](CC(C)C)NC(=O)[C@@H](NC(C)=O)C(C)C)[C@@H](C)O)[C@@H](C)O)C(=O)N[C@@H](CO)C(=O)N[C@@H](Cc1c[nH]c2ccccc12)C(=O)N[C@H](C(=O)N[C@@H](CCCCN)C(=O)N[C@@H](CCCNC(=N)N)C(=O)N[C@@H](CCCCN)C(=O)N[C@@H](CCCNC(=N)N)C(=O)N[C@@H](CCC(N)=O)C(=O)N[C@@H](CCC(N)=O)C(=O)NCC(=O)NCC(=O)NCC(=O)NCC(=O)N[C@@H](CO)C(=O)N[C@H](CCCCN)C(=O)N[C@H](CC(C)C)C(=O)N[C@H](C)C(=O)N[C@H](CCCCN)C(=O)N[C@H](CC(C)C)C(=O)N[C@H](C)C(=O)N[C@H](CCCCN)C(=O)N[C@H](CCCCN)C(=O)N[C@H](CC(C)C)C(=O)N[C@H](C)C(=O)N[C@H](CCCCN)C(=O)N[C@H](CC(C)C)C(=O)N[C@H](C)C(=O)N[C@H](CCCCN)C(=O)O)[C@@H](C)CC [MpepK]
invasion of PC3 cells (PC3 cells): significantly reduced | inhibitory effect on EMT and FMT of epithelial cells [1]: no significant inhibitory effect | tumor volume [2, 3]: reduced | tumor weight [2, 3]: reduced | survival rate ([2]; B16F10 melanoma model): extended
